US20220370467A1, “USING OF A PPAR-DELTA AGONIST IN THE TREATMENT OF KIDNEY DISEASE” (Reneo Pharmaceuticals, Inc., priority 2019, published 2022)

Assays:
[1] = test system: human retinoid X receptor (hRXR); assay: human retinoid X receptor activity
hPPARα = target: T1, hPPARα (Homo sapiens, UniProt Q07869); assay: in vitro assay on human PPAR subtypes (transactivation): hPPARα; format: cell-based
T1 construct: expressed in transfected cells; host or cells: HEK293
T1 sequence (Q07869 239-466 limits assumed): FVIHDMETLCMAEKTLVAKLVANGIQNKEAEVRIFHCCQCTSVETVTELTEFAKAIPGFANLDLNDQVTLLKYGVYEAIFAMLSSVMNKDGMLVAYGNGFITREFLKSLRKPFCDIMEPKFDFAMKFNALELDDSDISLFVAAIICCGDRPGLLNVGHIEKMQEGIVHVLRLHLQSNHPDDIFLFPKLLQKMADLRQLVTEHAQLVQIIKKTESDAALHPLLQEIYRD
From the text: (§1) “Activation” here is defined as the abovementioned downstream response, which in the case of PPAR's is gene transcription. Gene transcription may be measured indirectly as downstream production of proteins reflective of the activation of the particular PPAR subtype under study. Alternatively, an artificial reporter construct may be employed to study the activation of the individual PPAR's expressed in cells. The ligand binding domain of the particular receptor to be studied may be fused to the DNA binding domain of a transcription factor, which produces convenient laboratory readouts, such as the yeast GAL4 transcription factor DNA binding domain. The fusion protein may be transfected into a laboratory cell line along with a Gal4 enhancer, which effects the expression of the luciferase protein. When such a system is transfected into a laboratory cell line, binding of a receptor agonist to the fusion protein will result in light emission.
(§2) The PPAR transient transactivation assay may be based on transient transfection into human HEK293 cells of two plasmids encoding a chimeric test protein and a reporter protein respectively. […] The amount of luciferase protein is measured by light emission after addition of the appropriate substrate. […]

hPPARγ = target: T2, hPPARγ (Homo sapiens, UniProt P37231); assay: in vitro assay on human PPAR subtypes (transactivation): hPPARγ; format: cell-based
T2 construct: expressed in transfected cells; host or cells: HEK293
T2 sequence (P37231 238-503 limits assumed): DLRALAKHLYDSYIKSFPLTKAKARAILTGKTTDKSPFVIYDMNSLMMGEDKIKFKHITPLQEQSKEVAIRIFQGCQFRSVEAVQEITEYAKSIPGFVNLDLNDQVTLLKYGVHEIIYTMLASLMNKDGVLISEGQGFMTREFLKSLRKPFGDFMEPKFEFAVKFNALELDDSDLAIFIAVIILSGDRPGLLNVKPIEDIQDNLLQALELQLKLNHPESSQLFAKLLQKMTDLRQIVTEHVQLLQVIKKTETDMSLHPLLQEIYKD
From the text: as §1, §2

LXRβ = target: T3, LXRβ (Homo sapiens, UniProt P55055); assay: activity on nuclear receptor LXRβ
T3 sequence (P55055 1-460): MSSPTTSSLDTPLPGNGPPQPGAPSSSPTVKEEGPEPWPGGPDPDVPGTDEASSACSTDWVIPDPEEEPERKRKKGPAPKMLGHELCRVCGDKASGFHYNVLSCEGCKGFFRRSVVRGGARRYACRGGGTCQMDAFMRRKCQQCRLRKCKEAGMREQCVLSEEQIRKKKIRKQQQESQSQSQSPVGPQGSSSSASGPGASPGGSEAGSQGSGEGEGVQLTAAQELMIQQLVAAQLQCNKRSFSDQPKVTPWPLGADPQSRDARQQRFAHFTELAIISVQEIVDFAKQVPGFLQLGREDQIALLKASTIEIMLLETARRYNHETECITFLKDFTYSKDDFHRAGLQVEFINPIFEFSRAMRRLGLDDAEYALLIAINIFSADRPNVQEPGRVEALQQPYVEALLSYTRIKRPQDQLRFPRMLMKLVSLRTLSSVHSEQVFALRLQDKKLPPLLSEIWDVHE

SMILES: Cc1cc(OC/C=C(/c2ccc(F)cc2)c2ccc(C#CCN3CCOCC3)cc2)ccc1OCC(=O)O [Compound 1, (E)-[4-[3-(4-Fluorophenyl)-3-[4-[3-(morpholin-4-yl)propynyl]phenyl]allyloxy]-2-methyl-phenoxy]acetic acid]
- hRXR activity [1]: did not show any
- agonist type on PPARα (hPPARα): partial agonist
- activity on PPARα in transactivation assays (hPPARα; in some cases): negligible activity
- agonist type on PPARγ (hPPARγ): partial agonist
- activity on PPARγ in transactivation assays (hPPARγ; in some cases): negligible activity
- activity on LXRβ (LXRβ): did not show any
